Data on 4 compounds can be found in US20120164670A1, “METHODS AND KITS FOR MEASURING ENZYME ACTIVITY” (President and Fellows of Harvard College, priority 2009, published 2012).

Read-outs that look alike come from different tables or passages of the source.

What all share (assay type): biochemical
The target of assay [1] is T1, SIRT1 (Homo sapiens, UniProt Q96EB6).
T1 sequence (Q96EB6 1-747): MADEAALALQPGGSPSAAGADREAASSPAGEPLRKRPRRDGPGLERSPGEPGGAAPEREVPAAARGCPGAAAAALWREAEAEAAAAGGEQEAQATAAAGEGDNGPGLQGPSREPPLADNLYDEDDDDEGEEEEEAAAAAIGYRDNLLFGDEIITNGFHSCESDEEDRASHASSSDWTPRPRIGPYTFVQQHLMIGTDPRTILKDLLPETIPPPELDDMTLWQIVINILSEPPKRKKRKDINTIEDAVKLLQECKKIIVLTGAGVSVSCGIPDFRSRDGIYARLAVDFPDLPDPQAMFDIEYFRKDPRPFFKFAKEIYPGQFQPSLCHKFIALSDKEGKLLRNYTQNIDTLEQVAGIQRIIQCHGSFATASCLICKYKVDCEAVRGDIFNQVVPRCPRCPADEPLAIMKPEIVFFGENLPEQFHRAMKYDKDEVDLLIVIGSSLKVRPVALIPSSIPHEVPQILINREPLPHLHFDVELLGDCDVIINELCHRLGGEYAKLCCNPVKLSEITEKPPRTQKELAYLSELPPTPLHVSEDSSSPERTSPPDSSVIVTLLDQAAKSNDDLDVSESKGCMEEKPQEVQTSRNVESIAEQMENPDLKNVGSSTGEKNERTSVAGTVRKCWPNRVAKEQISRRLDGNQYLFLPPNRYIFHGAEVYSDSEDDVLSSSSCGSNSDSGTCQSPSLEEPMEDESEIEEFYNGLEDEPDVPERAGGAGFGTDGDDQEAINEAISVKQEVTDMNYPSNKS
Description: PNC1-OPT fluorescent Nicotinamide Assay of SIRT1 deacetylation. The method, then: A SIRT1 enzymatic deacetylation reaction was carried out in the presence of an acetylated substrate and β-NAD. […] Subsequently, PNC1 was added to the mixture to convert all of the nicotinamide generated during the reaction into ammonia. Additionally, PNC1 may be added directly to the SIRT1 reaction (and the reactions may proceed simultaneously). […] In brief, the products of the PNC1 reaction were reacted with o-phthaladehyde in the presence of DTT. The reaction was allowed to proceed for 1 hour, and subsequently the amount of fluorescent adducts obtained were measured fluorometrically with excitation at ˜413 nm and emission at ˜476 nm. […] A blank reaction was also performed in the absence of NAD.
Prepare a master-mix for the total number of reactions you wish to perform. For each individual reaction, mix the following in the order presented (the total volume for each reaction is 100 uL):
Incubate at 37° C. for the appropriate amount of time (typically 1 hour) Reaction 2: Nicotinamide→Ammonia→Fluorescent adducts Note: When adding the OPT Developer it is advisable to work in a dark or dimly lit setting. Dim the lights prior to adding the developer to each reaction. a) Add 100 uL of the OPT Developer Mix to each reaction. b) Mix each sample by vortexing briefly for 5 s at the highest setting. c) Immediately cover all of the samples with Aluminum foil, and incubate the reactions on an orbital shaker for 1 hour at room temperature. Once covered, ambient lighting may be restored. 3) If necessary samples may be transferred to a 96-well plate for reading (do this under dim light). Read the fluorescence on a fluorometer with filters set to excitation (˜420 nm+/−20, and emission ˜450 nm (+/−20). A 0.1 s or 1 s read is generally recommended.
OPT Developer Reagent: A solution of 10 mM OPT and 10 mM DTT in 100% EtOH. Store at −20° C. in the dark until use. Cover with Aluminum foil in order to minimize exposure to light.

The target in assay [2] is T1, SIRT1. Nature of the assay: PNC1-GDH (non-fluorometric) Nicotinamide Assay of SIRT1 deacetylation. Particulars: FIG. 4; Nicotinamide Assay depicted in FIG. 1 (PNC1-GDH); read-out: NAD Km value for SIRT1. The method, then: A SIRT1 enzymatic deacetylation reaction was carried out in the presence of an acetylated substrate and β-NAD. […] Subsequently, a-Ketoglutarate and NADPH were added to the reaction mix. The absorbance was read at 340 nm using an appropriate spectrophotometer (Ro). PNC1 and GDH were then added in excess to induce the coupled conversion of NADPH to NADP (PNC1 first converts NAM to NH3, and subsequently GDH uses the ammonia to oxidize NADPH to NADP). A second reading at 340 nm was then obtained (R1). The difference in absorbance readings, R1-Ro is proportional to the amount of NAM produced in the initial deacetylation reaction, thereby allowing for the measurement of activity. A blank reaction was carried out in the absence of NAD (or absence of Enzyme), as above, and subtracted from each sample in order to normalize the data.
Ex. Substrate Concentration (BIOMOL)=20 uM; NAD Concentration=1 mM
1) Mix the following (final volume 100 uL): • a) 10 uL 10×BIOMOL Buffer (250 mM Tris-Cl [pH=8], 1.37 M NaCl, 27 mM KCl, 10 mM MgCl2) • b) 0.4 uL *H4K16-Lys BIOMOL peptide (from a 5 mM stock for a final concentration of 20 uM) • c) 1 uL of 100 mM B-NAD (for a final concentration of 1 mM) • d) 2 uL SIRT1 enzyme (at 1.2 ug/ul, total ˜2.5 ug) • e) […] ddH20 2) Mix the reaction by pipetting. […] Place the reaction on ice until ready to proceed with reaction 2 (Centrifuge Briefly). […]

The target in assay [3] is T2, full-length human SIRT1 enzyme (Homo sapiens, UniProt Q96EB6).
T2 construct: 1.1 ug/uL full-length human SIRT1 enzyme
T2 sequence (Q96EB6 1-747): T1 sequence (Q96EB6 1-747)
Nature of the assay: Sirtuin assay kit (PNC1-OPT) with hSIRT1 enzyme. The method, then:
Kit contents are generally stored at −20° C. Modifications or variations in volumes or amounts of components described below are compatible with kits and assays described herein. • 1) Assay Buffer: 2 tubes with 1 mL each of 10× Assay Buffer. Dilute to 1× with ddH20 prior to use. • 2) Non-tagged Peptide Substrate: 1 tube with 140 uL of 5 mM H3K9ac substrate (TARK(ac)STG)) (SEQ ID NO:23). This is a sample substrate only; any substrate may be used in this assay. • 3) β-NAD: a) 1 tube with 450 uL of 10 mM B-NAD, and b) 1 tube with 50 uL of 100 mM B-NAD. In some instances, it is preferable to keep β-NAD in concentrated aliquot form, and dilute it prior to use. • 4) hSIRT1 Enzyme: 1 tube with 400 uL of 1.1 ug/uL full-length human SIRT1 enzyme. • 5) yPNC1 Enzyme: 1 tube with 200 uL of 2 ug/uL yeast PNC1 enzyme • 6) Developing Reagent: 2 vials with 10 mL each 1× Developer (10 mM OPT/10 mM DTT in 100% EtOH). Minimize exposure to light as outlined in the procedure. […]
In some instances, when adding the OPT Developer it is advisable to work in a dark or dimly lit setting. […] Once covered, ambient lighting may be restored. • d) Read the samples. Samples may be transferred to a 96-well plate for reading (do this under dim light). Read the fluorescence on a fluorometer with filters set to excitation ˜420 nm, and emission ˜460 nm. […]

Take “DBC1: endogenous SIRT1 protein inhibitor”: the “effect of concentration on SIRT1 activity (dose titration)” value in the assay with SIRT1 [1] (FIG. 21B, H3K9-L peptide substrate) is “inversely correlates with SIRT1 activity”.

Take “Adenosine diphosphate ribose [ADPr, reference compound]”: on SIRT1 [1] (FIG. 19/20, Vmax and Vmax/K vs [ADPr] for β-NAD and H3K9 peptide), the “mechanism of SIRT1 inhibition” value is “competitive inhibitor of β-NAD”.

Take `Oc1ccc(C=Cc2cc(O)cc(O)c2)cc1` [Resveratrol, reference compound]: the “effect on SIRT1 deacetylase activity on the Fleur de Lys substrate” value at SIRT1 [1] (FIG. 10C, 100 uM, 75 uM β-NAD and 25 uM Fleur de Lys substrate) was “activation of SIRT1 deacetylase activity”.

For `NC(=O)C1=CN([C@@H]2O[C@H](COP(=O)(O)OP(=O)(O)OC[C@H]3O[C@@H](n4cnc5c(N)ncnc54)[C@H](O)[C@@H]3O)[C@@H](O)[C@H]2O)C=CC1` [NAD, β-nicotinamide adenine dinucleotide], the Km at SIRT1 [2] was 80 to 100 µM; in assay [3] (kit protocol, Experiment 2 mastermix, read-out: Km of β-NAD (final concentration = Km)) it was 150 µM; in assay [3] (stated in kit protocol (blank control note), read-out: Km for NAD) it was roughly 160 µM; at SIRT1 [1] (FIG. 8D, Nicotinamide Assay depicted in FIG. 6 (PNC1-OPT), Fleur de Lys peptide as substrate, read-out: NAD Km value for SIRT1), roughly 200 µM.
